Measured values as given in US20220380286A1, “METHOD FOR PRODUCING 2,2'-BIS(CARBOXYMETHOXY)-1,1'-BINAPHTHYL” (HONSHU CHEMICAL INDUSTRY CO., LTD., priority 2019, published 2022).

Experiment: solubility in water (concentration of saturated solution)
Format: physicochemical
Conditions: 30° C., crystals filtered in Example 2
Method: After two hours, the reaction solution was gradually cooled and filtered at 25° C. (corresponding to the separation step of the present invention) to obtain crystals. […] The crystals were washed with water (18 g) and then washed with methyl isobutyl ketone (18 g) to obtain 109.0 g of a sodium salt of 2,2′-bis(carboxymethoxy)-1,1′-binaphthyl. For the removal of a mother liquor during the filtration, centrifugal force (small centrifuge H-122, manufactured by KOKUSAN Co., Ltd.) was utilized.

concentration of saturated solution in water: 3.8 wt %
SMILES: O=C([O-])COc1ccc2ccccc2c1-c1c(OCC(=O)[O-])ccc2ccccc12.[Na+].[Na+] [sodium salt of 2,2′-bis(carboxymethoxy)-1,1′-binaphthyl]
